Data as given in patent publication US12227520B2 (priority 2019, dated 2025).
pEC50: −log10 of the molar value. Where two headings read alike, the source gives them in different places.

Experiments:
HIV-1 (IIIB) = experiment: Antiviral assay in MT-4 cells (HIV MT-4 antiviral assay); assay type: cell-based; conditions: Human immunodeficiency virus 1, IIIB, MT4, 120 h, HIV-1 (IIIB) in MT-4 cells, 5 days incubation; read-out: EC50
In short: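 Read-out is CellTiter-Glo chemiluminescence after 5-day culture at 37° C, giving protection of MT-4 cells from HIV-1 IIIB cytopathicity. Compounds tested in 1:3 dilution series in complete RPMI; controls were no drug, mock infection and 5 μM AZT.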

[1] = Cytotoxicity assay in MT-4 cells; assay type: cell-based, human; conditions: human, uninfected MT-4 cells, 5 days incubation; read-out: CC50
In short: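 For cytotoxicity, uninfected MT-4 cells were incubated with compounds 5 days at 37 °C, with 10 μM puromycin marking base cytotoxicity. Parallel plates used HIV-1 IIIB-infected (1:250 stock dilution) or mock cells with 5 μM AZT and no-drug controls. Read-out: CellTiter-Glo chemiluminescence.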

pLai RLuc reporter virus = experiment: microbe, parasite or virus in culture; assay type: cell-based, HIV; conditions: Human immunodeficiency virus 1, 72 h
In short: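 Read-out is Renilla luciferase after 72 h at 37 °C in MT-4 cells infected 2 h beforehand with pLai RLuc reporter virus; compounds diluted 1:3.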

[2] = read-out: Antiviral Serum Shift RLuc 50% HS, HS/CCM (RPMI media, 10% FBS, 50% HS, 1% P/S), 72-h incubation
[3] = read-out: Antiviral Serum Shift RLuc CCM, CCM (RPMI media, 10% FBS, 1% P/S), 72-h incubation

Row | SMILES | pEC50 (HIV-1 (IIIB)) | CC50 at 5 days [1] [nM] | pEC50 (pLai RLuc reporter virus; [2]) | pEC50 (pLai RLuc reporter virus; [3])
1 | O=C(NCc1c(F)cc(F)cc1F)c1cn2c(c(O)c1=O)C(=O)N1CCC[C@H]3C[C@@]32C1 [Example 66-2, (1aS,11aS)—N-(2,4,6-trifluorobenzyl)-7-hydroxy-6,8-dioxo-1a,2,3,4,6,8-hexahydro-1H-5,11a-methanocyclopropa[h]pyrido[1,2-a][1,4]diazonine-9-carboxamide] | 8.78 | 10400 | 8.34 | 9.53
2 | O=C(NCc1ccc(F)cc1F)c1cn2c(c(O)c1=O)C(=O)N1CCCC[C@@H]2C1 (single isomer, unassigned) [Example 25-1] | 8.89 | 11500 | 7.44 | 9.38
3 | O=C(NCc1c(F)cc(F)cc1F)c1cn2c(c(O)c1=O)C(=O)N1C[C@@H]3CC[C@@H](C3)[C@@H]2C1 [Example 41-2, (4R,7S,8R)-13-hydroxy-1,12-dioxo-N-(2,4,6-trifluorobenzyl)-1,3,4,5,6,7,8,12-octahydro-2,8:4,7-dimethanopyrido[1,2-a][1,4]diazecine-11-carboxamide] | 8.85 | 14300 | 9.01 | 9.59
4 | C[C@@H]1CC[C@H](C)[C@@H]2CN1C(=O)c1c(O)c(=O)c(C(=O)NCc3c(F)cc(F)cc3F)cn12 [Example 151-1, (3R,6S,7R)-12-hydroxy-3,6-dimethyl-1,11-dioxo-N-(2,4,6-trifluorobenzyl)-1,4,5,6,7,11-hexahydro-3H-2,7-methanopyrido[1,2-a][1,4]diazonine-10-carboxamide] | 8.37 | 14700 | 5.94 | 9.14
5 | O=C(NCc1c(F)cc(F)cc1F)c1cn2c(c(O)c1=O)C(=O)N1C[C@@H]2CCCc2ccccc21 [Example 80-1, (6S)-1-hydroxy-2,15-dioxo-N-(2,4,6-trifluorobenzyl)-2,6,7,8,9,15-hexahydro-6,14-methanobenzo[e]pyrido[1,2-a][1,4]diazecine-3-carboxamide] | 8.65 | 10400 | 9.19 | 9.46
6 | O=C(NCc1c(F)cc(F)cc1F)c1cn2c(c(O)c1=O)C(=O)N1C[C@@H]2CCc2c(F)cccc21 [Example 43-1, (12S)-1-fluoro-7-hydroxy-6,8-dioxo-N-(2,4,6-trifluorobenzyl)-6,8,13,14-tetrahydro-12H-5,12-methanobenzo[e]pyrido[1,2-a][1,4]diazonine-9-carboxamide] | 7.38 | 8100 | 6.83 | 8.36
7 | O=C(NCc1ccc(F)cc1F)c1cn2c(c(O)c1=O)C(=O)N1CCCCC2C1 (racemic) [Example 25, N-(2,4-difluorobenzyl)-12-hydroxy-1,11-dioxo-1,4,5,6,7,11-hexahydro-3H-2,7-methanopyrido[1,2-a][1,4]diazonine-10-carboxamide] | 8.77 | 12600 | 8.72 | 9.72
8 | C[C@@H]1C[C@H]2CN(C(=O)c3c(O)c(=O)c(C(=O)NCc4c(F)cc(F)cc4F)cn32)[C@@H](C)C1 [Example 142-1, (3S,5S,7S)-12-hydroxy-3,5-dimethyl-1,11-dioxo-N-(2,4,6-trifluorobenzyl)-1,4,5,6,7,11-hexahydro-3H-2,7-methanopyrido[1,2-a][1,4]diazonine-10-carboxamide] | 8.71 | 8420 | 8.93 | 9.45
9 | O=C(NCc1ccc(F)cc1F)c1cn2c(c(O)c1=O)C(=O)N1C[C@H]2CCc2cc(Cl)ccc21 [Example 49-2, (12R)-2-chloro-N-(2,4-difluorobenzyl)-7-hydroxy-6,8-dioxo-6,8,13,14-tetrahydro-12H-5,12-methanobenzo[e]pyrido[1,2-a][1,4]diazonine-9-carboxamide] | 8.62 | 7200 | 8.95 | 9.70
10 | O=C(NCc1c(F)cc(F)cc1F)c1cn2c(c(O)c1=O)C(=O)N1CCC(F)(F)C[C@H]2C1 [Example 114, (7S)-5,5-difluoro-12-hydroxy-1,11-dioxo-N-(2,4,6-trifluorobenzyl)-1,4,5,6,7,11-hexahydro-3H-2,7-methanopyrido[1,2-a][1,4]diazonine-10-carboxamide] | 8.64 | 30500 | 8.98 | 9.14
11 | O=C(NCc1ccc(F)c(Cl)c1Cl)c1cn2c(c(O)c1=O)C(=O)N1CCCC[C@H]2C1 [Example 62, (7S)—N-(2,3-dichloro-4-fluorobenzyl)-12-hydroxy-1,11-dioxo-1,4,5,6,7,11-hexahydro-3H-2,7-methanopyrido[1,2-a][1,4]diazonine-10-carboxamide] | 8.90 | 3460 | 8.38 | 9.53
12 | O=C(NCc1ccc(F)cc1F)c1cn2c(c(O)c1=O)C(=O)N1CCCC(F)[C@H]2C1 (stereo partly drawn) [Example 172-2, (7R)—N-(2,4-difluorobenzyl)-6-fluoro-12-hydroxy-1,11-dioxo-1,4,5,6,7,11-hexahydro-3H-2,7-methanopyrido[1,2-a][1,4]diazonine-10-carboxamide] | 8.83 | 12800 | 8.58 | 9.38
13 | O=C(NCc1cccc(Cl)c1F)c1cn2c(c(O)c1=O)C(=O)N1Cc3cc(F)c(F)cc3C[C@@H]2C1 [Example 143-1, (6R)—N-(3-chloro-2-fluorobenzyl)-9,10-difluoro-1-hydroxy-2,14-dioxo-2,7,12,14-tetrahydro-6H-6,13-methanobenzo[f]pyrido[1,2-a][1,4]diazonine-3-carboxamide] | 7.64 | > 50000 | 6.88 | 8.32
14 | O=C(NCc1c(F)cc(F)cc1F)c1cn2c(c(O)c1=O)C(=O)N1C[C@@H]2CCC[C@@H]1CF [Example 164, (3R,7S)-3-(fluoromethyl)-12-hydroxy-1,11-dioxo-N-(2,4,6-trifluorobenzyl)-1,4,5,6,7,11-hexahydro-3H-2,7-methanopyrido[1,2-a][1,4]diazonine-10-carboxamide] | 8.92 | 10400 | 7.88 | 9.48
15 | C[C@]1(F)CCCN2C[C@H]1n1cc(C(=O)NCc3c(F)cc(F)cc3F)c(=O)c(O)c1C2=O [Example 179, (6S,7R)-6-fluoro-12-hydroxy-6-methyl-1,11-dioxo-N-(2,4,6-trifluorobenzyl)-1,4,5,6,7,11-hexahydro-3H-2,7-methanopyrido[1,2-a][1,4]diazonine-10-carboxamide] | 8.83 | 13100 | 9.10 | 9.47
16 | O=C(NCc1c(F)cc(F)cc1F)c1cn2c(c(O)c1=O)C(=O)N1CCC=C(F)[C@H]2C1 (single isomer, unassigned) [Example 75-2] | 8.68 | 26000 | 8.66 | 9.33
17 | O=C(NCc1c(F)cc(F)cc1F)c1cn2c(c(O)c1=O)C(=O)N1Cc3cc(F)ccc3C[C@H]2C1 [Example 145, (6S)-10-fluoro-1-hydroxy-2,14-dioxo-N-(2,4,6-trifluorobenzyl)-2,7,12,14-tetrahydro-6H-6,13-methanobenzo[f]pyrido[1,2-a][1,4]diazonine-3-carboxamide] | 9.09 | 8850 | 9.04 | 9.66
18 | CC[C@@H]1CCC[C@H]2CN1C(=O)c1c(O)c(=O)c(C(=O)NCc3c(F)cc(F)cc3F)cn12 [Example 130-1, (3R,7S)-3-ethyl-12-hydroxy-1,11-dioxo-N-(2,4,6-trifluorobenzyl)-1,4,5,6,7,11-hexahydro-3H-2,7-methanopyrido[1,2-a][1,4]diazonine-10-carboxamide] | 8.82 | 12200 | 8.38 | 9.67
19 | O=C(NCc1c(F)cc(F)cc1F)c1cn2c(c(O)c1=O)C(=O)N1C[C@@H]2CCc2sccc21 [Example 104-1, (11S)-6-hydroxy-5,7-dioxo-N-(2,4,6-trifluorobenzyl)-5,7,12,13-tetrahydro-11H-4,11-methanopyrido[1,2-a]thieno[3,2-e][1,4]diazonine-8-carboxamide] | 8.83 | 11900 | 8.70 | 9.49
20 | O=C(NCc1c(F)cc(F)cc1F)c1cn2c(c(O)c1=O)C(=O)N1CCCC[C@H]2C1 [Example 26-2, (7S)-12-hydroxy-1,11-dioxo-N-(2,4,6-trifluorobenzyl)-1,4,5,6,7,11-hexahydro-3H-2,7-methanopyrido[1,2-a][1,4]diazonine-10-carboxamide] | 8.88 | 14400 | 8.64 | 9.45
21 | O=C(NCc1ccc(F)cc1F)c1cn2c(c(O)c1=O)C(=O)N1CCc3cc(F)c(F)cc3[C@H]2C1 (single isomer, unassigned) [Example 111-1] | 8.70 | 5910 | 8.15 | 9.35
